Measured values: patent publication US20220098197A1, “SALTS OF HETEROCYCLIC COMPOUND AND USE THEREOF” (priority 2019, published 2022)

Legend:
[1] = system: LPS-induced ALI mice; test: LPS-induced ALI model: albumin in BALF; assay type: in vivo, Balb/c mice; settings: CT-NA 10 mg/kg (P<0.05) and 30 mg/kg (P<0.01), Dex 1 mg/kg (P<0.01); 24 hrs after LPS
Procedure: Evans Blue was a dye that could quickly bind to albumin and was remains restricted within blood vessels because the endothelium was impermeable to albumin under normal physiological conditions. Pulmonary microvascular permeability was assessed by measuring the extravasation of Evans blue dye in the lungs. The method was briefly described as follows. The mice were randomly divided into control group (12 mice) and LPS group (48 mice). The LPS group (48 mice) was further divided into four subgroups (each subgroup contains 12 mice). To measure pulmonary microvascular permeability, the unanaesthetized mice of LPS group received intragastric instillation of NS, CT-NA at 10 mg/kg or 30 mg/kg, or Dex at 1 mg/kg respectively. One hour later, the anaesthetized mice were intratracheally instilled with NS (control group) and LPS (all LPS subgroups) at 10 μl/10 g of body weight. […] And then the absorbance of the Evans blue dye extracted in the supernatant was measured against formamide blank at 620 nm via standard curve method, and expressed as microgram of dye per 100 mg of wet lung weight. In addition, the concentration of albumin in BALF was measured at 628 nm using a spectrophotometer and an albumin measurement kit. The albumin concentration ratio assessed from BALF represented not only the albumin level but also the permeability of the pulmonary microvascular.

[2] = Stability test (influencing factors: light, high temperature, high humidity); assay type: physicochemical
Procedure: Test process: An appropriate amount of each test sample was placed on a clean watch glass without a lid and then placed under the conditions of light 4500 lx±500 lx, high temperature of 60° C., high humidity of 92.5% RH for 5 days and 10 days, respectively. The properties and related substances were determined and the results were compared with the results at day 0 to observe the stability.
The test method for related substances was as follows.
Preparation of test sample solution: About 10 mg of each test sample was placed in a 10 ml volumetric flask, and 50% acetonitrile aqueous solution was added to dissolve sample, and diluted to the mark, shaken well, and filtered to obtain the test sample solution. A precise amount of 10 μl of the test sample solution was taken and injected according to the above chromatographic method, and the maximum single impurity and total impurity were calculated according to the area normalization method.

[3] = system: LPS-induced ALI mice; test: LPS-induced ALI model: pro-inflammatory cytokines and chemokines in BALF by ELISA; assay type: in vivo, Balb/c mice; settings: CT-NA 10 or 30 mg/kg, Dex 1 mg/kg, dose-dependent, P<0.05 or P<0.01
Procedure: Specific pathogen-free (SPF) Balb/c mice (♂/♀; 20-26 g; 8 weeks old) were purchased from Shanghai SIPPR-BK Experimental Animal Co., Ltd. Mice were kept in an isolated ventilated cage in an environment of 40-60% humidity, 24±2° C., and 12 hrs/12 hrs dark-light cycle, and had free access to food and water. The method for preparing the LPS-induced ALI model was simply described as follows. The mice were randomly divided into a control group (12 mice) and an LPS group (48 mice). The LPS group (48 mice) was further divided into four subgroups (12 mice in each subgroup). The unanaesthetized mice in the four subgroups of LPS were intragastrically administered with normal saline (NS), CT-NA at 10 mg/kg or 30 mg/kg, and Dex at 1 mg/kg, respectively. […] 24 hrs after LPS challenge, the oxygen saturation (SO2) of all mice was measured by a Moor VMS-OXY™ instrument which measured SO2 (%) in the microcirculation at the wavelength range of 500 to 650 nm. […]
The expression levels of pro-inflammatory cytokines (TNF-α, IL-1β, IL-6), and chemokines (KC, mouse IL-8 homolog) in the BALF supernatant were determined by using respective ELISA determination kits according to the instruction manual. After measurements of the optical density at 450 nm, the expression level was calculated via the standard curves.

[4] = system: isolated peritoneal macrophages; test: Cell viability (MTT) assay with LPS/PGD2, peritoneal macrophages; assay type: cell-based, mice
[5] = high temperature 60° C., Day 10
[6] = light condition 4500 lx±500 lx, Day 5
[7] = light condition 4500 lx±500 lx, Day 10

CN([C@@H]1CCc2c(CC(=O)[O-])c3cccnc3n2C1)S(=O)(=O)c1ccc(F)cc1.[Na+] [Sodium salt hydrate]
albumin content in BALF [1]: considerably reduced | stability under high temperature and high humidity conditions (in words) ([2]; 60° C., 92.5% RH, 5 and 10 days): relatively stable | maximum single impurity % ([2]; Day 0): 0.03% | property ([2]; Day 0): white powder | total impurity % ([2]; Day 0): 0.07% | maximum single impurity % ([2]; high humidity 92.5% RH, Day 5): 0.02% | property ([2]; high humidity 92.5% RH, Day 5): white powder | total impurity % ([2]; high humidity 92.5% RH, Day 5): 0.07% | maximum single impurity % ([2]; high humidity 92.5% RH, Day 10): 0.02% | property ([2]; high humidity 92.5% RH, Day 10): white powder | total impurity % ([2]; high humidity 92.5% RH, Day 10): 0.06% | maximum single impurity % ([2]; high temperature 60° C., Day 5): 0.02% | property ([2]; high temperature 60° C., Day 5): white powder | total impurity % ([2]; high temperature 60° C., Day 5): 0.07% | maximum single impurity % [2, 5]: 0.02% | property [2, 5]: white powder | total impurity % [2, 5]: 0.09% | maximum single impurity % [2, 6]: 0.06% | property [2, 6]: light yellow powder | total impurity % [2, 6]: 0.16% | maximum single impurity % [2, 7]: 0.15% | property [2, 7]: light yellow powder | total impurity % [2, 7]: 0.26% | production of IL-1β, TNF-α, IL-6 and KC in BALF [3]: effectively reduced | cytotoxicity (MTT), LPS plus CT-NA ([4]; LPS (100 ng/ml) plus CT-NA up to 100 μM): non-toxic | cytotoxicity (MTT), PGD2 plus CT-NA ([4]; PGD2 (10 μM) plus CT-NA up to 100 μM): non-toxic
